In general, pEC50 refers to −log10 of the EC50, conventionally taken in molar units. Usually CC50 stands for the concentration giving 50% cytotoxicity. As usually defined, the pIC50 is the negative decadic logarithm of the IC50, by convention in mol/L.

From ChEMBL document CHEMBL3627619, “Synthesis and biological profiling of 6- or 7-(het)aryl-7-deazapurine 4'-C-methylribonucleosides” (Bioorg Med Chem, 2015) come the findings set out here.

pEC50, pIC50: −log10 of the molar value.

One data set concerns dengue virus type 2. In words: Antiviral activity against DENV2 infected in African green monkey Vero cells. Type of data set: functional, organism-based.
Data set [1] can be described thus: Cytotoxicity against human HuH7 cells. The format is cell-based, Huh-7.
A further data set has as its system Hepatitis C virus. In words: Antiviral activity against Hepatitis C virus subtype 1b replicon infected in human HuH7 cells. The format is functional, cell-based, Hepacivirus hominis. The following applies: genotype 1b, Huh-7.
A short description of data set [2]: Cytotoxicity against African green monkey Vero cells. The format is cell-based. To be noted: chlorocebus sabaeus.
For data set [3], the system named is HCT-116. The experiment in a line: Cytotoxicity against p53 deficient human HCT116 cells after 3 days by MTT assay. The format is functional, cell-based. To be noted: HCT-116, 72 h. On the technique in general: Tetrazolium assays rely on reduction of a dye to a coloured formazan, in cell work by metabolically active cells.
A further data set concerns K562. The experiment in a line: Cytotoxicity against human K562 cells after 3 days by MTT assay. To be noted: K562, 72 h. The format is functional, cell-based.
Data set [4] is described as follows: Cytotoxicity against human CEM/DNR cells after 3 days by MTT assay. Type of data set: functional, cell-based. To be noted: 72 h.
A short description of data set [5]: Cytotoxicity against human K562-TAX cells after 3 days by MTT assay. The format is functional, cell-based. To be noted: 72 h.
In data set [6] the test system is HCT-116. The experiment in a line: Cytotoxicity against human HCT116 cells after 3 days by MTT assay. Type of data set: functional, cell-based. The following applies: HCT-116, 72 h.
The next data set deals with CCRF-CEM. In words: Cytotoxicity against human CCRF-CEM cells after 3 days by MTT assay. Type of data set: functional, cell-based. The following applies: 72 h.
For another data set, the system named is A549. In words: Cytotoxicity against human A549 cells after 3 days by MTT assay. Type of data set: functional, cell-based. To be noted: A549, 72 h.
Data set [7] can be described thus: Cytotoxicity against human MRC5 cells after 3 days by MTT assay. The format is cell-based.
Data set [8] in a line: Cytotoxicity against human BJ cells after 3 days by MTT assay. The format is cell-based.
A short description of data set [9]: Selectivity index, ratio of CC50 for human HuH7 cells to EC50 for Hepatitis C virus subtype 1b replicon infected in human HuH7 cells. The format is toxicity, cell-based, Huh-7. To be noted: read-out: Ratio CC50/EC50.

For the compound `C[C@]1(CO)O[C@@H](n2cc(-c3cccs3)c3c(N)ncnc32)[C@H](O)[C@@H]1O`, the pEC50 in the data set on dengue virus type 2 was < 4.30; with Hepatitis C virus, 4.75. Also, the CC50 in [1] is > 44 µM; in data set [2], > 50 µM.

As to `C[C@]1(CO)O[C@@H](n2ccc3c(-c4cc5ccccc5o4)ncnc32)[C@H](O)[C@@H]1O`, the pEC50 was < 4.30 in the data set with dengue virus type 2 and 5.12 in the data set on Hepatitis C virus. The CC50 in [1] is > 44 µM; in data set [2], > 50 µM.

As to `CCOC(=O)[C@H](C)NP(=O)(OC[C@@]1(C)O[C@@H](n2cc(-c3ccccc3)c3c(N)ncnc32)[C@H](O)[C@@H]1O)Oc1ccccc1` (stereo not given in full), it took 9.1 µM to reach half-maximal cytotoxicity in data set [1] (CC50). The same compound had a pEC50 in the data set with Hepatitis C virus of 4.74.

Take `CCOC(=O)[C@H](C)NP(=O)(OC[C@@]1(C)O[C@@H](n2ccc3c(-c4cccs4)ncnc32)[C@H](O)[C@@H]1O)Oc1ccccc1` (stereo not given in full): the pIC50 in the data set on HCT-116 [3] is 4.66; in the data set on K562, 4.64; in [4], 4.37; in data set [5] it was 4.47; in the data set with HCT-116 [6], 4.71; in the data set on CCRF-CEM it was 4.91. Also, the pIC50 in the data set with A549 was 4.65. Also, it took 3.64 µM to reach half-maximal cytotoxicity in data set [1] (CC50). The pEC50 in the data set with Hepatitis C virus is 5.48. Moreover, the values for the CC50 at 72 h in data set [7] and in data set [8] were 106 µM and 83.1 µM, respectively.

Turning to `CCOC(=O)[C@H](C)NP(=O)(OC[C@@]1(C)O[C@@H](n2ccc3c(-c4ccccc4)ncnc32)[C@H](O)[C@@H]1O)Oc1ccccc1` (stereo not given in full), the pEC50 is < 4.30 in the data set on dengue virus type 2 and 4.78 with Hepatitis C virus. The pIC50 is 4.64 in the data set with HCT-116 [3]; 4.52 with K562; 4.36 in data set [4]; 4.45 in [5]; 4.65 in the data set on HCT-116 [6]; 4.76 with CCRF-CEM. This compound showed a pIC50 in the data set on A549 of 4.59. Also, the CC50 was > 44 µM in [1] and > 50 µM in [2]. Further, the CC50 at 72 h turned out to be 108 µM in [7] and 75.3 µM in data set [8].

Regarding `CCOC(=O)[C@H](C)NP(=O)(OC[C@@]1(C)O[C@@H](n2ccc3c(-c4ccco4)ncnc32)[C@H](O)[C@@H]1O)Oc1ccccc1` (stereo not given in full), the pEC50 in the data set on dengue virus type 2 was < 4.30; in the data set with Hepatitis C virus, 4.75. The CC50 in [1] is 27.9 µM; in data set [2], > 50 µM.

`CCOC(=O)[C@H](C)NP(=O)(OC[C@@]1(C)O[C@@H](n2cc(-c3ccco3)c3c(N)ncnc32)[C@H](O)[C@@H]1O)Oc1ccccc1` (stereo not given in full) gave a CC50 in [1] of 20.8 µM. Further, in the data set on Hepatitis C virus, the pEC50 is < 4.36.

Regarding `C[C@]1(CO)O[C@@H](n2cc(-c3cc4ccccc4o3)c3c(N)ncnc32)[C@H](O)[C@@H]1O`, the pEC50 in the data set with dengue virus type 2 is 5.00; in the data set on Hepatitis C virus, 5.35. In addition, the pIC50 in the data set with HCT-116 [3] is 4.97; in the data set with K562 it was 5.02; in data set [4], 5.05; in data set [5], 5.05; with HCT-116 [6], 5.01; with CCRF-CEM, 4.78. The compound also showed a pIC50 in the data set on A549 of 5.15. In addition, the values for the CC50 in data set [1] and in [2] were 31.1 µM and 27 µM, respectively. The CC50 at 72 h stood at 83.7 µM in data set [7] and 104 µM in [8].

As for `C[C@]1(CO)O[C@@H](n2cc(-c3ccsc3)c3c(N)ncnc32)[C@H](O)[C@@H]1O`, the values for the pEC50 with dengue virus type 2 and with Hepatitis C virus were < 4.30 and 4.39, respectively. Besides, the figures for the CC50 in data set [1] and in data set [2] were > 44 µM and > 50 µM, respectively.

Consider `C[C@]1(CO)O[C@@H](n2cc(I)c3c(N)ncnc32)[C@H](O)[C@@H]1O`, for which the pEC50 in the data set on dengue virus type 2 is 5.26; with Hepatitis C virus, 5.43. Further, the pIC50 was 5.23 in the data set on HCT-116 [3]; 4.69 in the data set with K562; 4.56 in data set [4]; 5.02 in [5]; 5.28 with HCT-116 [6]; 4.99 in the data set with CCRF-CEM. In the data set with A549, this compound showed a pIC50 of 5.23. The figures for the CC50 in data set [1] and in data set [2] were 27.1 µM and 8.08 µM, respectively. Also, in [9], the selectivity ratio was 7.2. Also, the CC50 at 72 h in data set [7] worked out at 40.8 µM; in data set [8] it was 42.4 µM.

On to `CCOC(=O)[C@H](C)NP(=O)(OC[C@@]1(C)O[C@@H](n2cc(-c3cccs3)c3c(N)ncnc32)[C@H](O)[C@@H]1O)Oc1ccccc1` (stereo not given in full), for which the CC50 in data set [1] is 13 µM. The pEC50 in the data set on Hepatitis C virus was 4.63.

Turning to `C#Cc1cn([C@@H]2O[C@](C)(CO)[C@@H](O)[C@H]2O)c2ncnc(N)c12`, the pEC50 in the data set with dengue virus type 2 is 5.34; in the data set on Hepatitis C virus, 5.20. Also, the pIC50 is 4.99 in the data set with HCT-116 [3]; 4.51 in the data set with K562; 4.42 in data set [4]; 4.56 in data set [5]; 5.06 in the data set with HCT-116 [6]; 4.52 in the data set with CCRF-CEM. In addition, the pIC50 in the data set with A549 was 5.02. Moreover, the results for the CC50 in data set [1] and in data set [2] were 32.2 µM and 13.4 µM, respectively. Besides, the CC50 at 72 h worked out at 125 µM in [7] and 126 µM in data set [8].

In the case of `C[C@]1(CO)O[C@@H](n2cc(-c3ccco3)c3c(N)ncnc32)[C@H](O)[C@@H]1O`, the values for the pEC50 in the data set with dengue virus type 2 and with Hepatitis C virus were < 4.30 and 4.70, respectively. The CC50 in [1] was > 44 µM; in [2] it was > 50 µM.
